In patent US20110171221A1, “COMPOSITIONS AND METHODS FOR THE TREATMENT OF A NEOPLASIA” (University of Florida Research Foundation, priority 2008, published 2011):
Entries after “also recorded” stand apart in the source; their conditions may differ.

Experiments:
[1] = system: prostate cancer stem cells (CSC) and non-stem prostate cancer cells (Non-CSC); test: cell viability after Docetaxel; format: cell-based, human; conditions: 5 nM Docetaxel, Day 0, 1, 2 and 3 (up to 72 hours)
Experimental: FIG. 12B is a graph depicting the cell viability of prostate cancer stem cells (CSC) and non-stem prostate cancer cells (Non-CSC) observed for up to 72 hours after treatment with Docetaxel. Cell viability was determined by quantifying the surviving prostate cancer stem cells (CSC) and non-stem prostate cancer cells (Non-CSC) in the samples exposed to 5 nM Docetaxel at Day 0, 1, 2 and 3.
(§1) Prostate cancer stem cells from metastatic prostate cancer cell lines were examined for their sensitivity to conventional cancer treatments (e.g., radiation and chemotherapy). […] Metastatic prostate stem cell lines were also treated with Docetaxel, a frontline treatment for drug-resistant cancer cells.

[2] = system: Sox2, Oct 3/4 and Nanog expression in metastatic prostate stem cell lines; test: Western blot of stem cell markers after Docetaxel; format: cell-based, human; conditions: Docetaxel 1 nM, 2 nM, 5 nM, 10 nM
Experimental: as §1
For the experiments described above, Western-blot analysis was performed by standard methods on isolated cancer stem cells and non-cancer stem cells. Whole cell lysates were prepared in lysis buffer with a commercially available protease inhibitor cocktail (Pierce) at 4° C., followed by centrifugation at 13,000×g for 10 min. Extracts were separated by SDS/PAGE and transferred to nitrocellulose membranes. The membranes were blocked with 5% nonfat dry milk in 20 mM Tris-HCl (pH 7.5), 500 mM sodium chloride, and 0.05% Tween 20 for 2 h and then incubated with commercially available primary antibodies against OCT3/4, c-Myc, β-actin (Cell Signaling), SOX2, Klf4 (Santa Cruz), Nanog (BioLegend), or E-cadherin (BD Bioscience) in the same buffer with 1% BSA (fraction V). After washing, the blots were incubated with an HRP-conjugated secondary antibody and visualized with a commercially available chemiluminescence detection system (Amersham). β-actin-specific Abs were used to ensure equal protein loading.

CC(=O)O[C@@]12CO[C@@H]1C[C@H](O)[C@@]1(C)C(=O)[C@H](O)C3=C(C)[C@@H](OC(=O)[C@H](O)[C@@H](NC(=O)OC(C)(C)C)c4ccccc4)C[C@@](O)([C@@H](OC(=O)c4ccccc4)[C@H]21)C3(C)C [Docetaxel]
cell viability of prostate cancer stem cells vs non-stem prostate cancer cells [1]: more cell viability compared to non-stem prostate cancer cells; also recorded: resistant | detection of Sox2, Oct 3/4 and Nanog expression [2]: increased detection of Sox2, Oct 3/4 and Nanog expression with increasing dose
